This is an account of results in US20250282802A1, “P[…] AND METHODS” (priority 2020, published 2025).

Where two headings read alike, the source gives them in different places.

The subject of one assay is CT26 (colon carcinoma). Put plainly: Cytotoxicity profiling (Alamar Blue), CT26. The class given is cell-based. On the procedure:
(§1) FIG. 8. Cytotoxicity of pantaphos across various cancer cell lines. Assays were conducted as described (mBio. 2021 Feb. 2; 12(1):e03402-20), using the Alamar Blue method with 72-hour treatment using Raptinal ([…]) as Dead cell control; n=3. Cell seeding densities: CT26 (colon carcinoma) 2000 c/w; HOS (osteosarcoma) 2500 c/w; ES-2 (ovarian carcinoma), HCT-116 (colorectal carcinoma), A-549 (lung carcinoma), A-172 (glioblastoma), D54 (glioblastoma), U87 (glioblastoma), T98G (glioblastoma), SK-ML-28 (melanoma), MCF-7 (breast cancer), AM38 (glioblastoma) and MDA-MB-231 (breast cancer) 3000 c/w; U118MG (malignant glioma) 4000 c/w; HepG2 (liver cancer) 8000 c/w. c/w=cells per well. IC50 and Emax values shown in Table 6 were extracted from the raw data plotted in FIG. 8.
(§2) Cell culture cytotoxicity screening. The compounds were evaluated for their ability to kill cancer cell lines in culture, using HOS (osteosarcoma); ES-2 (ovarian cancer); HCT 116 (colon cancer); A549 (lung carcinoma); and A172 (glioma) cells. Human skin fibroblast cells (HFF-1) were also assessed. Cells were seeded (3000 cells well^−1 for ES-2, HCT 116, A549 and A172; 4000 cells well^−1 for HFF-1 and 2500 cells well^−1 for HOS) in a 96-well plate and allowed to attach overnight. Cells were treated with pantaphos in water. The concentrations of the tested compounds were 5 nM to 100 μM (1% water final; 100 μl well^−1). Raptinal (50 μM) was used as a dead control. On each plate, five technical replicates per compound were performed. 72 hours post-treatment, cell viability was assessed using the Alamar Blue method (http://www.bio-rad-antibodies.com/measuring-cytotoxicity-proliferation-spectrophotometry-fluorescence-alamarBlue.html). […] Conversion of Alamar Blue was measured with a plate reader (SpectraMax M3; Molecular Devices) by fluorescence (excitation wavelength: 555 nm; emission wavelength: 585 nm; cutoff 570 nm; autogain). Percentage death was determined by normalizing to water-treated cells and Raptinal-treated cells. […]

Assay [1] concerns HCT-116 (human colon cancer). Put plainly: Cell culture cytotoxicity screening (Alamar Blue), HCT-116. In kind it is cell-based. As to conditions: HCT-116, Alamar Blue, 72 hours. On the procedure: as §1, with “IC50 and Emax values shown in Table 6 were extracted from the raw data plotted in FIG. 8.” left out
Cell culture cytotoxicity screening. The compounds were evaluated for their ability to kill cancer cell lines in culture, using HOS (osteosarcoma); ES-2 (ovarian cancer); HCT 116 (colon cancer); A549 (lung carcinoma); and A172 (glioma) cells. Human skin fibroblast cells (HFF-1) were also assessed. […] 72 hours post-treatment, cell viability was assessed using the Alamar Blue method (http://www.bio-rad-antibodies.com/measuring-cytotoxicity-proliferation-spectrophotometry-fluorescence-alamarBlue.html). […] Conversion of Alamar Blue was measured with a plate reader (SpectraMax M3; Molecular Devices) by fluorescence (excitation wavelength: 555 nm; emission wavelength: 585 nm; cutoff 570 nm; autogain). […]

Another assay has as its system AM38 (glioblastoma). Kind of assay: Cytotoxicity profiling (Alamar Blue), AM38. In kind it is cell-based, human. As to the method: as §1, §2
In a further assay the test system is Escherichia coli WM6242. Put plainly: Disk diffusion assay with phosphonate-specific bioassay strain E. coli WM6242. In kind it is cell-based. As to the method:
Antibacterial bioassays. Susceptibility testing for the ESKAPE pathogens and Salmonella enterica LT2 was performed using a Kirby-Bauer method as outlined by the Clinical and Laboratory Standards Institute (CLSI). For rich media bioassays, Mueller Hinton Broth 2 (MH-2, Sigma-Aldrich, 90922) was used for all strains except 1% BHI was supplemented for Enterococcus faecalis ATCC 19433. For minimal media bioassays, glucose-MOPS minimal medium was used. Briefly, overnight bacterial cultures were sub-cultured and inoculated into 5 mL top agar (0.7% agar) for final concentration of 5×10^5 CFU/mL. Then, 20 μL of a compound 2-fold dilution series (200, 100, 50, 25, 12.5, 6.25 μM in water) was spotted on 6 mm diameter blank paper discs (BD BBL™ 231039). Control discs received 20 μL of 50 mg/mL kanamycin. Plates were incubated at 35° C. for 20-24 hours. […] Sensitivity of the IPTG-inducible phosphonate uptake strain WM6242 to pantaphos was tested using a disk diffusion assay. Plates containing growth medium were overlayed with 5 mL of top agar (0.7% agar) inoculated with 100 μL (OD600=0.8) of the phosphonate-specific E. coli indicator strain (WM6242) with or without addition of 1 mM IPTG. WM6242 is engineered with an IPTG-inducible, non-specific phosphonate uptake system (phnCDE). After the seeded overlay solidified, 6 mm paper disks were spotted with 10 μL of a dilution series (200, 100, 50, 25, 12.5, 6.25 μM in water) of pantaphos and applied to the plates that were then incubated at 37° C. for 24 hours. Phosphonate-specific activity was queried by comparing sensitivity to that of 200 μM kanamycin and 200 μM fosfomycin.

`O=C(O)/C=C(\C(=O)O)C(O)P(=O)(O)O` (stereo not shown) [pantaphos, 2-(hydroxy(phosphono)methyl)maleate]: the “sensitivity of the cell line to the compound, in words” value with CT26 (colon carcinoma) (CT26) and in the assay with AM38 (glioblastoma) (AM38) was “sensitive” in each case. In addition, the 50% inhibitory concentration (IC50) with CT26 (colon carcinoma) (CT26, Alamar Blue, 72-hour treatment (Table 6)) came to 3.38 ± 0.09 µM; in assay [1], 10.4 ± 2 µM; in the assay with AM38 (glioblastoma) (Homo sapiens, AM-38, AM38, Alamar Blue, 72-hour treatment (Table 6)), 3.97 ± 1.01 µM. In addition, the maximal response (Emax) in the assay on CT26 (colon carcinoma) (Mus musculus, CT26, Alamar Blue, 72-hour treatment) was 81 to 92%; in assay [1] (read-out: Emax = percentage cell death (converted)) it was 59%; with AM38 (glioblastoma) (Homo sapiens, AM-38, AM38, Alamar Blue, 72-hour treatment), 74 to 78%. For the same compound, the minimum inhibitory concentration (MIC) with Escherichia coli WM6242 (+IPTG, Mueller-Hinton 2 medium, read-out: MIC, Rich medium) is over 200 µM; in the assay with Escherichia coli WM6242 (+IPTG, glucose-MOPS minimal medium, read-out: MIC, Minimal medium), over 200 µM; in the assay on Escherichia coli WM6242 (Escherichia coli, WM6242, −IPTG, Mueller-Hinton 2 medium, read-out: MIC, Rich medium), over 200 µM; with Escherichia coli WM6242 (Escherichia coli, WM6242, −IPTG, glucose-MOPS minimal medium, read-out: MIC, Minimal medium) it was over 200 µM. The “sensitivity of the strain to pantaphos, in words” value in the assay on Escherichia coli WM6242 (with or without IPTG induction) is recorded as “insensitive”.
